The term NOAEL denotes the highest tested level that showed no adverse finding.

The structures appear in SMILES notation. Converted amounts (≈) assume the structure as drawn. Some results are limits rather than exact numbers.

The results in this text go back to EPA's ToxValDB 9.5 (doi:10.2903/j.efsa.2010.1705).

One series concerns Canidae. To be noted: chronic, Dog Other.
Another series relates to Colinus virginianus. The settings on record: for LD50: acute, mortality.
Another series deals with Rattus norvegicus. To be noted: for LD50: acute, mortality; for NOAEL: chronic.
Another series deals with Anas platyrhynchos. The settings on record: for LD50: oral.
The test system of the next series is Daphnia magna. To be noted: chronic/long-term; duration: 21 days; reproduction.

Take `NC(=O)c1c(Cl)cccc1Cl` [2,6-Dichlorobenzamide]: the NOAEL was 4.5 mg/kg-day in the series with Canidae (duration: 2 years); 30 mg/kg-day in the series with Oryctolagus sp. (reproduction developmental, body weight); 5.7 mg/kg-day in the series on Rattus norvegicus; 13.5 mg/kg-day in the series with Rattus norvegicus (oral). For the same molecule, the NOEL in the series with Colinus virginianus (short-term, oral, diet) is 876 mg/kg-day. The same molecule showed an LD50 in the series with Rattus norvegicus (oral) of 500 mg/kg-day. The molecule also yielded an NOEC in the series on Tagia sp. (chronic/long-term, duration: 56 days) of 250 mg/kg.
As to `N#Cc1c(Cl)cccc1Cl` [2,6-Dichlorobenzonitrile], the LD50 in the series with Anas platyrhynchos (acute, unspecified, clinical signs) was greater than 50 mg/kg-day; in the series on Anas platyrhynchos (short-term, feed, mortality), greater than 470 mg/kg-day; in the series on Colinus virginianus (oral, diet), 598 mg/kg-day; in the series with Colinus virginianus (oral), 698 mg/kg-day; with Rattus norvegicus (oral) it was greater than 2000 mg/kg-day. Moreover, the NOEL was found to be 35.5 mg/kg-day with Anas platyrhynchos (not reported) and 14.1 mg/kg-day in the series on Colinus virginianus (reproduction developmental). Further, the no-observed-adverse-effect level (NOAEL) with Canidae (duration: 52 weeks, oral, hematological) turned out to be 1 mg/kg-day; in the series on Oryctolagus sp. (developmental, development), 45 mg/kg-day. Further, the NOEC in the series on Daphnia magna was found to be 1.2 mg/L; in the series with Oncorhynchus mykiss (chronic/long-term, duration: 96 days, growth) it was 0.66 mg/L. Also, the LC50 in the series with Oncorhynchus mykiss (acute, duration: 96 hours, mortality) was 7.2 µg/mL (≈ 41.9 µM); with Tagia sp. (acute, duration: 14 days, mortality) it was 270 mg/kg.
